Data reported in patent US10287301B2 (Achillion Pharmaceuticals, Inc., priority 2015, dated 2019).
Where two headings read alike, the source gives them in different places.

Biological target: Human Factor D (Homo sapiens (Human), UniProt P00746)
Test: Human Factor D Assay
Format: biochemical
In short: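 Thioester cleavage assay: human Factor D (serum-derived, 80 nM final), substrate Z-L-Lys-SBzl with DTNB, both 100 μM final, after 5 min compound preincubation at room temperature.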

[1] = Table 3, Human Factor D 80 nM, substrate Z-L-Lys-SBzl, read-out: IC50 (Stars)
[2] = Human Factor D, Table 3, read-out: IC50

Sequence of Human Factor D (P00746 26-253): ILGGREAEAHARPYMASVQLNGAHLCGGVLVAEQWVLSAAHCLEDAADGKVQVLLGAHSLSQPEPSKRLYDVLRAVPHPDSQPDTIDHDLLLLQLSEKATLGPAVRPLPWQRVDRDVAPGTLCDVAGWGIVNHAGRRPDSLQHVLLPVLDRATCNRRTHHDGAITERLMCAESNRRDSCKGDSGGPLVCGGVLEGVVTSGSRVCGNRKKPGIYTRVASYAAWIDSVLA

SMILES	IC50 [2] [nM]	also measured
CC(=O)c1nn(CC(=O)N2C[C@H](F)C[C@H]2C(=O)Nc2cccc(Br)n2)c2ccc(-c3cnc(CC(=O)O)nc3)cc12 [Compound 533, 2-(5-(3-Acetyl-1-(2-((2S,4R)-2-((6-bromopyridin-2-yl)carbamoyl)-4-fluoropyrrolidin-1-yl)-2-oxoethyl)-1H-indazol-5-yl)pyrimidin-2-yl)acetic acid]	–	IC50 [1]: < 1000 nM
CCc1ccc(Br)nc1NC(=O)[C@@H]1C[C@@H](F)CN1C(=O)Cn1nc(C(C)=O)c2cc(-c3cnc(C)nc3)ccc21 [Compound 534, (2S,4R)-1-(2-(3-Acetyl-5-(2-methylpyrimidin-5-yl)-1H-indazol-1-yl)acetyl)-N-(6-bromo-3-ethylpyridin-2-yl)-4-fluoropyrrolidine-2-carboxamide]	–	IC50 [1]: < 1000 nM
Cc1cccc(NC(=O)[C@@H]2[C@H]3CC[C@H](C3)N2C(=O)Cn2cc(C(N)=O)c3cc(-c4cnc5c(c4)CCC5)ccc32)n1 [Compound 535, 5-(6,7-Dihydro-5H-cyclopenta[b]pyridin-3-yl)-1-(2-((1R,3S,4S)-3-(6-methylpyridin-2-ylcarbamoyl)-2-azabicyclo[2.2.1]heptan-2-yl)-2-oxoethyl)-1H-indole-3-carboxamide]	–	IC50 [1]: > 10000 nM
Cc1cccc(NC(=O)[C@@H]2[C@H]3CC[C@H](C3)N2C(=O)Cn2cc(C(N)=O)c3cc(-c4ccc5c(c4)CC5)ccc32)n1 [Compound 536, 5-(1,2-Dihydrocyclobutabenzen-4-yl)-1-(2-((1R,3S,4S)-3-(6-methylpyridin-2-ylcarbamoyl)-2-azabicyclo[2.2.1]heptan-2-yl)-2-oxoethyl)-1H-indole-3-carboxamide]	–	IC50 [1]: > 10000 nM
CCOC(=O)Cc1ncc(-c2ccc3c(c2)c(C(C)=O)nn3CC(=O)N2C[C@H](F)C[C@H]2C(=O)Nc2cccc(Br)n2)cn1 [Compound 537, Ethyl 2-(5-(3-acetyl-1-(2-((2S,4R)-2-((6-bromopyridin-2-yl)carbamoyl)-4-fluoropyrrolidin-1-yl)-2-oxoethyl)-1H-indazol-5-yl)pyrimidin-2-yl)acetate]	–	IC50 [1]: < 1000 nM
CC(=O)c1nn(CC(=O)N2C[C@H](F)C[C@H]2C(=O)Nc2nc(Br)ccc2C2CC2)c2ccc(-c3cnc(C)nc3)cc12 [Compound 538, (2S,4R)-1-(2-(3-Acetyl-5-(2-methylpyrimidin-5-yl)-1H-indazol-1-yl)acetyl)-N-(6-bromo-3-cyclopropylpyridin-2-yl)-4-fluoropyrrolidine-2-carboxamide]	–	IC50 [1]: < 1000 nM
CCOC(=O)Cc1ncc(-c2ccc3c(c2)c(C(C)=O)nn3CC(=O)N2C[C@H](F)C[C@H]2C(=O)Nc2ccc(F)c(Br)n2)cn1 [Compound 539, ethyl 2-(5-(3-Acetyl-1-(2-((2S,4R)-2-((6-bromo-5-fluoropyridin-2-yl)carbamoyl)-4-fluoropyrrolidin-1-yl)-2-oxoethyl)-1H-indazol-5-yl)pyrimidin-2-yl)acetate]	–	IC50 [1]: < 1000 nM
CC(=O)c1nn(CC(=O)N2CC[C@H]2C(=O)Nc2cccc(Br)n2)c2ccc(-c3cnc(C)nc3)cc12 [Compound 542, (S)-1-(2-(3-Acetyl-5-(2-methylpyrimidin-5-yl)-1H-indazol-1-yl)acetyl)-N-(6-bromopyridin-2-yl)azetidine-2-carboxamide]	< 1000	–
COc1ccc(-c2ccc3c(c2)c(C(C)=O)nn3CC(=O)N2CC[C@H]2C(=O)Nc2cccc(C)n2)cn1 [Compound 546, (S)-1-(2-(3-Acetyl-5-(6-methoxypyridin-3-yl)-1H-indazol-1-yl)acetyl)-N-(6-methylpyridin-2-yl)azetidine-2-carboxamide]	> 10000	–
CC(=O)c1nn(CC(=O)N2CC[C@H]2C(=O)Nc2cccc(C)n2)c2ccc(-c3cccc(C#N)c3)cc12 [Compound 547, (S)-1-(2-(3-Acetyl-5-(3-cyanophenyl)-1H-indazol-1-yl)acetyl)-N-(6-methylpyridin-2-yl)azetidine-2-carboxamide]	> 10000	–
CC(=O)c1nn(CC(=O)N2CC[C@H]2C(=O)Nc2cccc(C)n2)c2ccc(-c3cccnc3)cc12 [Compound 548, (S)-1-(2-(3-Acetyl-5-(pyridin-3-yl)-1H-indazol-1-yl)acetyl)-N-(6-methylpyridin-2-yl)azetidine-2-carboxamide]	> 10000	–
CC(=O)c1nn(CC(=O)N2CC[C@H]2C(=O)Nc2cccc(C)n2)c2ccc(-c3ccc(F)nc3)cc12 [Compound 549, (S)-1-(2-(3-Acetyl-5-(6-fluoropyridin-3-yl)-1H-indazol-1-yl)acetyl)-N-(6-methylpyridin-2-yl)azetidine-2-carboxamide]	> 10000	–
CC(=O)c1nn(CC(=O)N2[C@@H]3C[C@@H]3C[C@H]2C(=O)NCC(F)=C(C)C2CC2)c2ccc(-c3cnc(C)nc3)cc12 [Compound 551, (1R,3S,5R)-2-(2-(3-Acetyl-5-(2-methylpyrimidin-5-yl)-1H-indazol-1-yl)acetyl)-N-(3-cyclopropyl-2-fluorobut-2-en-1-yl)-2-azabicyclo[3.1.0]hexane-3-carboxamide]	< 1000	–
CC(=O)c1nn(CC(=O)N2C[C@H](F)C[C@H]2C(=O)Nc2cccc(Br)n2)c2ccc(-c3cnc(Oc4ccncc4)nc3)cc12 [Compound 554, (2S,4R)-1-(2-(3-aAetyl-5-(2-(pyridin-4-yloxy)pyrimidin-5-yl)-1H-indazol-1-yl)acetyl)-N-(6-bromopyridin-2-yl)-4-fluoropyrrolidine-2-carboxamide]	< 1000	–
CC(=O)c1nn(CC(=O)N2C[C@H](F)C[C@H]2C(=O)Nc2cccc(Br)n2)c2ccc(-c3cnc(COC(=O)N(C)C)nc3)cc12 [Compound 555, (5-(3-Acetyl-1-(2-((2S,4R)-2-((6-bromopyridin-2-yl)carbamoyl)-4-fluoropyrrolidin-1-yl)-2-oxoethyl)-1H-indazol-5-yl)pyrimidin-2-yl)methyl dimethylcarbamate]	< 1000	–
CC(=O)c1nn(CC(=O)N2C[C@H](F)C[C@H]2C(=O)Nc2cccc(Br)n2)c2ccc(-c3cnc(NS(C)(=O)=O)nc3)cc12 [Compound 556, (2S,4R)-1-(2-(3-Acetyl-5-(2-(methylsulfonamido)pyrimidin-5-yl)-1H-indazol-1-yl)acetyl)-N-(6-bromopyridin-2-yl)-4-fluoropyrrolidine-2-carboxamide]	< 1000	–
CC(=O)c1nn(CC(=O)N2[C@@H]3C[C@@H]3C[C@H]2C(=O)NC/C(F)=C(\C)c2ccccc2)c2ccc(-c3cnc(C)nc3)cc12 [Compound 557, (1R,3S,5R)-2-(2-(3-Acetyl-5-(2-methylpyrimidin-5-yl)-1H-indazol-1-yl)acetyl)-N—((Z)-2-fluoro-3-phenylbut-2-en-1-yl)-2-azabicyclo[3.1.0]hexane-3-carboxamide]	< 1000	–
CC(=O)c1nn(CC(=O)N2C[C@H](F)C[C@H]2C(=O)Nc2ccn(CC(F)(F)F)n2)c2ccc(-c3cnc(N)nc3)cc12 [Compound 558, (2S,4R)-1-(2-(3-Acetyl-5-(2-aminopyrimidin-5-yl)-1H-indazol-1-yl)acetyl)-4-fluoro-N-(1-(S2,2,2-trifluoroethyl)-1H-pyrazol-3-yl)pyrrolidine-2-carboxamide]	< 1000	–
CC(=O)c1nn(CC(=O)N2C[C@H](F)C[C@H]2C(=O)Nc2cccc(C(F)(F)F)n2)c2ccc(-c3cnc(N)nc3)cc12 [Compound 560, (2S,4R)-1-(2-(3-Acetyl-5-(2-aminopyrimidin-5-yl)-1H-indazol-1-yl)acetyl)-4-fluoro-N-(6-(trifluoromethyl)pyridin-2-yl)pyrrolidine-2-carboxamide]	< 1000	–
CC(=O)c1nn(CC(=O)N2C[C@H](F)C[C@H]2C(=O)Nc2cccc(C(F)(F)F)n2)c2ccc(-c3cnc(C)nc3)cc12 [Compound 562, (2S,4R)-1-(2-(3-Acetyl-5-(2-methylpyrimidin-5-yl)-1H-indazol-1-yl)acetyl)-4-fluoro-N-(6-(trifluoromethyl)pyridin-2-yl)pyrrolidine-2-carboxamide]	< 1000	–
CC(=O)c1nn(CC(=O)N2C[C@H](F)C[C@H]2C(=O)Nc2cccc(OC(F)(F)F)c2F)c2ccc(-c3cnc(N)nc3)cc12 [Compound 563, (2S,4R)-1-(2-(3-Acetyl-5-(2-aminopyrimidin-5-yl)-1H-indazol-1-yl)acetyl)-4-fluoro-N-(2-fluoro-3-(trifluoromethoxy)phenyl)pyrrolidine-2-carboxamide]	< 1000	–
CCc1ncc(-c2ccc3c(c2)c(C(C)=O)nn3CC(=O)N2C[C@H](F)C[C@H]2C(=O)Nc2cccc(Br)n2)cn1 [Compound 566, (2S,4R)-1-(2-(3-Acetyl-5-(2-ethylpyrimidin-5-yl)-1H-indazol-1-yl)acetyl)-N-(6-bromopyridin-2-yl)-4-fluoropyrrolidine-2-carboxamide]	< 1000	–
CC(=O)c1nn(CC(=O)N2C[C@H](F)C[C@H]2C(=O)Nc2cccc(Br)n2)c2ccc(-c3cnc(C(C)C)nc3)cc12 [Compound 567, (2S,4R)-1-(2-(3-Acetyl-5-(2-isopropylpyrimidin-5-yl)-1H-indazol-1-yl)acetyl)-N-(6-bromopyridin-2-yl)-4-fluoropyrrolidine-2-carboxamide]	< 1000	–
CC(=O)c1nn(CC(=O)N2C[C@H](F)C[C@H]2C(=O)NC[C@@H]2CCN(C)C2)c2ccc(-c3cnc(C)nc3)cc12 [Compound 568, (2S,4R)-1-(2-(3-Acetyl-5-(2-methylpyrimidin-5-yl)-1H-indazol-1-yl)acetyl)-4-fluoro-N—(((S)-1-methylpyrrolidin-3-yl)methyl)pyrrolidine-2-carboxamide]	> 10000	–
CC(=O)c1nn(CC(=O)N2C[C@H](F)C[C@H]2C(=O)NC[C@H]2CCN(C)C2)c2ccc(-c3cnc(C)nc3)cc12 [Compound 569, (2S,4R)-1-(2-(3-acetyl-5-(2-methylpyrimidin-5-yl)-1H-indazol-1-yl)acetyl)-4-fluoro-N—(((R)-1-methylpyrrolidin-3-yl)methyl)pyrrolidine-2-carboxamide]	> 10000	–
CC(=O)c1nn(CC(=O)N2CCC[C@H]2C(=O)Nc2cccc(C)n2)c2ccc(-c3ccc4c(c3)CCC4)cc12 [Compound 572, (S)-1-(2-(3-Acetyl-5-(2,3-dihydro-1H-inden-5-yl)-1H-indazol-1-yl)acetyl)-N-(6-methylpyridin-2-yl)pyrrolidine-2-carboxamide]	–	IC50: 1000 to 10000 nM
